{"source": "patent US4973675A", "about": "“Hybrid nitrosoureidoanthracyclines having antitumor activity” (University of Tennessee Research Center, priority 1989, dated 1990)", "key": {"murine P388 leukemia": {"tested_on": "murine P388 leukemia", "details": "this protocol, cited from earlier work"}, "[1]": {"tested_on": "murine L1210 leukemia cells", "assay": "Clonogenic assay with cultured murine L1210 leukemia cells, 1 h drug exposure (LD90)", "format": "cell-based", "details": "Mus musculus, L1210; 1 hr drug exposure; read-out: L1210 LD90 (dose killing 90% of clonogens)", "method": "(§1) Culture and bioassay conditions were as described in Cancer Chemotherapy Pharmacology 20:277 (1987) \"Comparative Effects of Adriamycin and DNA-nonbinding Analogues on DNA, RNA, and Protein Synthesis in Vitro\", Israel et al., except that cell counts were determined by hemocytometer rather than by automated cell counting.\n+Dose killing 90% of clonogens, 1hr. drug exposure."}, "DNA topoisomerase II": {"tested_on": "DNA topoisomerase II", "assay": "Drug-stimulated topoisomerase II-mediated DNA cleavage assay (end-labeled PMC41 DNA)", "format": "biochemical", "excerpt": "FIGS. 5A and 5B are a photographic reproduction of the results of drug-stimulated topoisomerase II-mediated DNA cleavage assays performed on various compounds, including compounds of the present invention.\nDNA intercalation is a necessary but not a sufficient requirement for DNA topoisomerase II-mediated DNA cleavage. Accordingly, determination of drug-induced enzyme inhibition requires direct assay with isolated topoisomerase II. These assays involve determination of drug-enhanced topoisomerase II-mediated cleavage of PMC41 DNA appropriately end-labeled with [α-^32 P]dATP. As better seen in FIG. 5B, lane B, purified topoisomerase II, under the assay conditions, causes fragmentation of the DNA (background cleavage), as indicated by the radioautographic appearance of bands of cleaved DNA having differing mass values."}, "[2]": {"tested_on": "plasmid PC15 supercoiled DNA", "assay": "DNA unwinding assay (interference with DNA topoisomerase I-mediated unwinding; drug-DNA intercalation)", "format": "biochemical", "details": "for relative strength of drug-DNA intercalation (arbitrary scale): 0 = no intercalation, 9 = very strong intercalation", "excerpt": "DNA unwinding assays were used to measure the ability of a test drug to interfere with DNA topoisomerase I-mediated unwinding of plasmid PC15 supercoiled DNA. DNA topoisomerase I controls the topology of double-stranded DNA and is itself not inhibited by DNA intercalating agents. Rather, intercalating agents cause distortion of the torsional angle between adjacent DNA strand components and thereby interfere with the ability of topoisomerase I to convert supercoiled DNA into relaxed forms. Accordingly, this assay is taken as the definitive test of drug-DNA intercalation.\nDrugs were tested at 4 concentrations over a 125-fold concentration range. […] These compounds are 2-chloroethylurea derivatives of daunorubicin and adriamycin, respectively (i.e. not nitrosoureas, but chemical intermediates from which the nitrosoureas were derived)."}, "murine L1210 lymphocytes": {"tested_on": "murine L1210 lymphocytes", "assay": "DNA alkaline elution filter assay, DNA damage in murine L1210 lymphocytes", "format": "cell-based", "excerpt": "(§2) By means of the DNA alkaline elution filter assay technique, it is possible to assess the nature of damage induced in DNA by exposure to drugs and other agents. Depending on the assay conditions, DNA lesions can be quantified as direct strand breaks, DNA-DNA interstrand crosslinks, and protein-associated strand breaks and crosslinks. The action of akylating-type drugs on DNA typically results in a predominant formation of direct DNA single-strand breaks and DNA-DNA crosslinks. DNA intercalating agents show a preponderance of protein-associated DNA damage, detectable as protein-associated single-strand breaks and DNA-protein crosslinks.\n(§3) The nature of nitrosoureidoanthracycline-induced DNA damage in murine L1210 and human CLL lymphocytes was assessed by means of the alkaline elution filter technique. Murine L1210 leukemic lymphocytes, like P388/S lymphocytes, are known to contain high levels of topoisomerase II.\n(§4) *All concentrations 1 μM, 1hr incubation. Each entry represents the\n(§5) mean of at least two experiments, frequency per 10^6 nucleotides;\n(§6) statistically significant increase above background underlined. DB, direc\n(§7) (nonenzymatic) DNA breaks; PAB, proteinassociated DNA cleavage; DDCL,\n(§8) interstrand DNA crosslinks; DPCL, DNAprotein crosslinks."}, "[3]": {"tested_on": "murine P388/adriamycin-resistant leukemia", "assay": "In vivo antitumor activity vs. murine P388/adriamycin-resistant leukemia (P388/ADR)", "details": "for increase in life span: P388/ADR in vivo, lack of response confirmed", "quoted_text": "(§9) Assays were run essentially according to the established protocols of the U.S. National Cancer Institute (Geran et al., 1972 \"Protocols for Screening Chemical Agents and Natural Products Against Animal Tumors and Other Biological Systems\" (3rd Ed.), Cancer Chemotherapy Rep. [3]33, 1-103.), with the test agent given at 3-5 incremental dose levels in each screening experiment and with median survival of treated groups referenced against data for untreated controls.\n(§10) *B6D2F1 males; 1 × 10^6 tumor cell inoculum ip day 0; treatment"}, "[4]": {"tested_on": "human CEM leukemic lymphocytes", "assay": "Growth inhibition of human CEM leukemic lymphocyte suspension cultures, 48 h continuous drug exposure (ID50)", "format": "cell-based", "details": "Homo sapiens, Lymphocyte; suspension culture, 48 hr continuous drug exposure (Table 3); read-out: CEM, ID50 (50% growth-inhibitory concentration)", "method": "as §1"}, "[5]": {"tested_on": "murine P388/adriamycin-resistant leukemia", "details": "Johnson et al. (1976); cited from earlier work"}, "human CLL lymphocytes": {"tested_on": "human CLL lymphocytes", "assay": "DNA alkaline elution filter assay, DNA damage in human CLL lymphocytes", "format": "cell-based", "excerpt": "as §2, §3, §4, §5, §6, §7, §8\nB-cell type lymphocytes freshly obtained from patients with chronic lymphocytic leukemia (CLL) show undetectable levels of topoisomerase II."}, "[6]": {"tested_on": "murine P388/adriamycin-resistant leukemia", "details": "mouse, in vivo, ip", "quoted_text": "as §9, §10"}, "[7]": {"details": "L1210, 1 μM, 1 hr incubation, 0 hr after treatment"}, "[8]": {"details": "CLL, 1 μM, 1 hr incubation, 0 hr after treatment"}}, "note": "Where “and” joins values, the source holds several entries; their conditions need not be identical. Equal values may be shown once. Entries after “also recorded” stand apart in the source; their conditions may differ. Read-outs that look alike come from different tables or passages of the source."}
{"smiles": "COc1cccc2c1C(=O)c1c(O)c3c(c(O)c1C2=O)C[C@@](O)(C(=O)CO)C[C@@H]3O[C@H]1C[C@H](N)[C@H](O)[C@H](C)O1", "note": "[Adriamycin, adriamycin, reference compound]", "values": [{"measurement": "longterm survivors, historical results", "setting": "murine P388 leukemia; optimal dose 3.0 mg/kg", "value": "infrequent longterm survivors"}, {"measurement": "IC90", "setting": "[1]", "value": 310, "unit": "nM"}, {"measurement": "enhancement of topoisomerase II-mediated DNA cleavage", "setting": "DNA topoisomerase II; 625-fold concentration range", "value": "at low concentrations adriamycin enhances DNA fragmentation"}, {"measurement": "concentration at which background cleavage is eliminated", "setting": "DNA topoisomerase II; and higher", "value": "≥ 4.6 μM and ≥ 2.5 μg/ml"}, {"measurement": "relative strength of drug-DNA intercalation (arbitrary scale)", "setting": "[2]", "value": 7}, {"measurement": "interference with topoisomerase I-mediated conversion of supercoiled DNA / intercalation", "setting": "[2]; 4 concentrations, 125-fold range", "value": "concentration-dependent ability to interfere with the conversion of supercoiled DNA to relaxed forms; also recorded: ability of increasing concentrations of adriamycin (positive control) to interfere with the conversion of supercoiled DNA to relaxed forms"}, {"measurement": "pattern of DNA damage", "setting": "murine L1210 lymphocytes; L1210", "value": "significant amounts of protein-associated single-strand breaks, without producing much in the way of direct strand breaks and DNA-DNA interstrand cross-links"}, {"measurement": "DB, direct (nonenzymatic) DNA breaks", "setting": "murine L1210 lymphocytes; [7]", "value": "-0.1 frequency per 10^6 nucleotides"}, {"measurement": "DD-CL, interstrand DNA crosslinks", "setting": "murine L1210 lymphocytes; [7]", "value": "0.1 frequency per 10^6 nucleotides"}, {"measurement": "increase in life span", "setting": "[3]", "value": 0, "unit": "%"}, {"measurement": "IC50", "setting": "[4]", "value": 55, "unit": "nM"}, {"measurement": "in vivo sensitivity of P388/ADR", "setting": "[5]", "value": "insensitive to adriamycin in vivo"}, {"measurement": "pattern of DNA damage", "setting": "human CLL lymphocytes; CLL B-cell lymphocytes", "value": "cannot be detected in these cells to any significant level"}, {"measurement": "DB, direct (nonenzymatic) DNA breaks", "setting": "human CLL lymphocytes; [8]", "value": "0.1 frequency per 10^6 nucleotides"}, {"measurement": "DD-CL, interstrand DNA crosslinks", "setting": "human CLL lymphocytes; [8]", "value": "0.0 frequency per 10^6 nucleotides"}, {"measurement": "DP-CL, DNA-protein crosslinks", "setting": "human CLL lymphocytes; [8]", "value": "0.1 frequency per 10^6 nucleotides"}, {"measurement": "PAB, protein-associated DNA cleavage", "setting": "human CLL lymphocytes; [8]", "value": "0.1 frequency per 10^6 nucleotides"}]}
{"smiles": "COc1cccc2c1C(=O)c1c(O)c3c(c(O)c1C2=O)C[C@@](O)(C(C)=O)C[C@@H]3O[C@H]1C[C@H](N)[C@H](O)[C@H](C)O1", "note": "[Daunorubicin, daunorubicin]", "values": [{"measurement": "ILS, historical results", "setting": "murine P388 leukemia; optimal dose 2.0 mg/kg", "value": "+75 - +100%"}, {"measurement": "longterm survivors, historical results", "setting": "murine P388 leukemia; optimal dose 2.0 mg/kg", "value": "no longterm survivors"}, {"measurement": "IC90", "setting": "[1]", "value": 900, "unit": "nM"}, {"measurement": "Net mean percent weight change, day 7", "setting": "[6]; 2 mg/kg", "value": -0.5, "unit": "%"}, {"measurement": "Net mean percent weight change, day 7", "setting": "[6]; 3 mg/kg", "value": -7, "unit": "%"}, {"measurement": "Net mean percent weight change, day 7", "setting": "[6]; 4 mg/kg", "value": -7, "unit": "%"}, {"measurement": "Net mean percent weight change, day 7", "setting": "[6]; 12 mg/kg", "value": -13, "unit": "%"}, {"measurement": "Net mean percent weight change, day 7", "setting": "[6]; 15 mg/kg", "value": -13, "unit": "%"}, {"measurement": "Net mean percent weight change, day 7", "setting": "[6]; 18 mg/kg", "value": -28, "unit": "%"}, {"measurement": "relative strength of drug-DNA intercalation (arbitrary scale)", "setting": "[2]", "value": 7}, {"measurement": "toxicity flag", "setting": "[3]; 18.0 mg/kg, d1 only", "value": "Toxic"}, {"measurement": "increase in life span", "setting": "[3]", "value": 0, "unit": "%"}, {"measurement": "Long-term survivors", "setting": "[3]; ip, 1.0 mg/kg qd 1-4", "value": "0/6"}, {"measurement": "Median increase in lifespan", "setting": "[3]; ip, 1.0 mg/kg qd 1-4", "value": "+9%"}, {"measurement": "Median survival", "setting": "[3]; ip, 1.0 mg/kg qd 1-4", "value": 12, "unit": "days"}, {"measurement": "Net mean percent weight change, day 7", "setting": "[3]; ip, 1.0 mg/kg qd 1-4", "value": "+20%"}, {"measurement": "Range of death (dying animals)", "setting": "[3]; ip, 1.0 mg/kg qd 1-4", "value": "11 to 12", "unit": "days"}, {"measurement": "Long-term survivors", "setting": "[3]; ip, 2.0 mg/kg qd 1-4", "value": "0/7"}, {"measurement": "Median increase in lifespan", "setting": "[3]; ip, 2.0 mg/kg qd 1-4", "value": 0, "unit": "%"}, {"measurement": "Median survival", "setting": "[3]; ip, 2.0 mg/kg qd 1-4", "value": 11, "unit": "days"}, {"measurement": "Range of death (dying animals)", "setting": "[3]; ip, 2.0 mg/kg qd 1-4", "value": "11 to 12", "unit": "days"}, {"measurement": "Long-term survivors", "setting": "[3]; ip, 3.0 mg/kg qd 1-4", "value": "0/7"}, {"measurement": "Median increase in lifespan", "setting": "[3]; ip, 3.0 mg/kg qd 1-4", "value": 0, "unit": "%"}, {"measurement": "Median survival", "setting": "[3]; ip, 3.0 mg/kg qd 1-4", "value": 11, "unit": "days"}, {"measurement": "Range of death (dying animals)", "setting": "[3]; ip, 3.0 mg/kg qd 1-4", "value": "10 to 12", "unit": "days"}, {"measurement": "Long-term survivors", "setting": "[3]; ip, 4.0 mg/kg qd 1-4", "value": "0/7"}, {"measurement": "Median increase in lifespan", "setting": "[3]; ip, 4.0 mg/kg qd 1-4", "value": -9, "unit": "%"}, {"measurement": "Median survival", "setting": "[3]; ip, 4.0 mg/kg qd 1-4", "value": 10, "unit": "days"}, {"measurement": "Range of death (dying animals)", "setting": "[3]; ip, 4.0 mg/kg qd 1-4", "value": "9 to 12", "unit": "days"}, {"measurement": "Long-term survivors", "setting": "[3]; ip, 12.0 mg/kg d1 only", "value": "0/7"}, {"measurement": "Median increase in lifespan", "setting": "[3]; ip, 12.0 mg/kg d1 only", "value": 0, "unit": "%"}, {"measurement": "Median survival", "setting": "[3]; ip, 12.0 mg/kg d1 only", "value": 10, "unit": "days"}, {"measurement": "Range of death (dying animals)", "setting": "[3]; ip, 12.0 mg/kg d1 only", "value": "9 to 11", "unit": "days"}, {"measurement": "Long-term survivors", "setting": "[3]; ip, 15.0 mg/kg d1 only", "value": "0/7"}, {"measurement": "Median increase in lifespan", "setting": "[3]; ip, 15.0 mg/kg d1 only", "value": 0, "unit": "%"}, {"measurement": "Median survival", "setting": "[3]; ip, 15.0 mg/kg d1 only", "value": 10, "unit": "days"}, {"measurement": "Range of death (dying animals)", "setting": "[3]; ip, 15.0 mg/kg d1 only", "value": "8 to 11", "unit": "days"}, {"measurement": "Long-term survivors", "setting": "[3]; ip, 18.0 mg/kg d1 only", "value": "0/7"}, {"measurement": "Median survival", "setting": "[3]; ip, 18.0 mg/kg d1 only", "value": 8, "unit": "days"}, {"measurement": "Range of death (dying animals)", "setting": "[3]; ip, 18.0 mg/kg d1 only", "value": "6 to 9", "unit": "days"}, {"measurement": "Median increase in lifespan", "setting": "[3]; ip, 18.0 mg/kg d1 only, ** Toxic", "value": -20, "unit": "%"}, {"measurement": "IC50", "setting": "[4]", "value": 30, "unit": "nM"}, {"measurement": "in vivo sensitivity of P388/ADR", "setting": "[5]", "value": "cross-resistant to daunorubicin"}]}
